Measurements: ChEMBL document CHEMBL4376803, “Recent Advances in the Exploration of Therapeutic Analogues of Gramicidin S, an Old but Still Potent Antimicrobial Peptide” (J Med Chem, 2019)
≈ marks a conversion by molar mass, not a printed value. Blank lines part the entries; values can stand above or below the compound they belong to. Numbered stars: 1 amine (or outer) side, 2 acyl side, 3 side chain; on linkers, the order of the positions; unused ones are H or OH. Square brackets hold non-standard residues; d marks the D form. Peptide text beside a SMILES is read from it. X1 = Cc1nc([C@@H](Cc2ccccc2)N[*:1])c(C(=O)[*:2])s1; Orn = NCCC[C@H](N)C(=O)O

How the values were obtained:
[1] = tested on: Escherichia coli; assay: Antibacterial activity against Escherichia coli ATCC 8739 incubated for 48 hrs; format: functional; conditions: ATCC 8739, 48 h
[2] = tested on: Staphylococcus aureus; assay: Antibacterial activity against Staphylococcus aureus ATCC 6538 incubated for 48 hrs; format: functional; conditions: ATCC 6538, 48 h
[3] = tested on: Bacillus subtilis; assay: Antibacterial activity against Bacillus subtilis CIP 52.65 incubated for 48 hrs; format: functional; conditions: CIP 52.65, 48 h
[4] = tested on: Pseudomonas aeruginosa; assay: Antibacterial activity against Pseudomonas aeruginosa ATCC 9027 incubated for 48 hrs; format: functional; conditions: ATCC 9027, 48 h
[5] = Haemolytic activity in human erythrocytes at 100 ug/ml after 30 mins relative to control; format: ADME, cell-based, Erythrocyte; conditions: read-out: Activity
[6] = Hemolytic activity in sheep erythrocytes; format: ADME, cell-based, Ovis aries, Erythrocyte
[7] = Haemolytic activity in human RBC incubated for 1 hr; format: ADME, cell-based, Erythrocyte; conditions: human red blood cells
[8] = tested on: Klebsiella pneumoniae; assay: Antibacterial activity against Klebsiella pneumonia K6 ATCC 700603 after overnight incubation by broth microdilution method; format: functional; conditions: 700603 K6
[9] = tested on: Escherichia coli; assay: Antibacterial activity against Escherichia coli K-12 ATCC 29181 after overnight incubation by broth microdilution method; format: functional
[10] = tested on: Salmonella; assay: Antibacterial activity against Salmonella after overnight incubation by broth microdilution method; format: functional
[11] = tested on: Staphylococcus aureus; assay: Antibacterial activity against vancomycin-resistant Staphylococcus aureus Mu50/ATCC 700699 after overnight incubation by broth microdilution method; format: functional
[12] = tested on: Staphylococcus aureus; assay: Antibacterial activity against multidrug-resistant Staphylococcus aureus ATCC BAA-44 after overnight incubation by broth microdilution method; format: functional
[13] = tested on: Staphylococcus epidermidis; assay: Antibacterial activity against Staphylococcus epidermidis ATCC 27626 after overnight incubation by broth microdilution method; format: functional
[14] = tested on: Erythrocyte; assay: Haemolytic activity in human RBC after 24 hrs by visual method; format: ADME, cell-based
[15] = Therapeutic index, ratio of HD100 for hemolytic activity in human RBC to MIC against Staphylococcus aureus K147; format: toxicity; conditions: human red blood cells, read-out: TI
[16] = tested on: Staphylococcus aureus; assay: Antibacterial activity against Staphylococcus aureus K147 after overnight incubation by microtiter dilution method; format: functional
[17] = molecular target: Lipopolysaccharide (LPS); assay: Displacement of Dansyl-polymyxin from Pseudomonas aeruginosa LPS by fluorescence method; conditions: read-out: I50
[18] = tested on: Escherichia coli; assay: Antibacterial activity against Escherichia coli UB1005 after overnight incubation by microtiter dilution method; format: functional
[19] = tested on: Pseudomonas aeruginosa; assay: Antibacterial activity against Pseudomonas aeruginosa H187 after overnight incubation by microtiter dilution method; format: functional
[20] = tested on: Enterococcus faecalis; assay: Antibacterial activity against Enterococcus faecalis ATCC 29212 after overnight incubation by microtiter dilution method; format: functional
[21] = Therapeutic index, ratio of HD100 for hemolytic activity in human RBC to MIC against Escherichia coli UB1005; format: toxicity; conditions: human red blood cells, read-out: TI
[22] = Therapeutic index, ratio of HD100 for hemolytic activity in human RBC to MIC against Pseudomonas aeruginosa H187; format: toxicity; conditions: human red blood cells, read-out: TI
[23] = Therapeutic index, ratio of HD100 for hemolytic activity in human RBC to MIC against Candida albicans; format: toxicity; conditions: human red blood cells, read-out: TI
[24] = Therapeutic index, ratio of HD100 for hemolytic activity in human RBC to MIC against Enterococcus faecalis ATCC 29212; format: toxicity; conditions: human red blood cells, read-out: TI
[25] = tested on: Candida albicans; assay: Antibacterial activity against Candida albicans after overnight incubation by microtiter dilution method; format: functional
[26] = Therapeutic index, ratio of HD100 for hemolytic activity in human erythrocytes to MIC against Pseudomonas aeruginosa ATCC 27853; format: toxicity, cell-based; conditions: read-out: TI
[27] = tested on: Escherichia coli; assay: Antibacterial activity against Escherichia coli ATCC 25922; format: functional
[28] = tested on: Pseudomonas aeruginosa; assay: Antibacterial activity against Pseudomonas aeruginosa ATCC 27853; format: functional
[29] = Therapeutic index, ratio of HD100 for hemolytic activity in human erythrocytes to MIC against Enterococcus faecalis ATCC 29212; format: toxicity, cell-based; conditions: read-out: TI
[30] = tested on: Erythrocyte; assay: Haemolytic activity in human erythrocytes; format: ADME, cell-based; conditions: erythrocyte
[31] = Therapeutic index, ratio of HD100 for hemolytic activity in human erythrocytes to MIC against Staphylococcus aureus ATCC 29213; format: toxicity, cell-based; conditions: read-out: TI
[32] = Therapeutic index, ratio of HD100 for hemolytic activity in human erythrocytes to MIC against Escherichia coli ATCC 25922; format: toxicity, cell-based; conditions: read-out: TI
[33] = tested on: Enterococcus faecalis; assay: Antibacterial activity against Enterococcus faecalis ATCC 29212; format: functional
[34] = tested on: Staphylococcus aureus; assay: Antibacterial activity against Staphylococcus aureus ATCC 29213; format: functional
[35] = tested on: Bacillus subtilis; assay: Antibacterial activity against Bacillus subtilis NBRC 3513; format: functional
[36] = tested on: Staphylococcus aureus; assay: Antibacterial activity against Staphylococcus aureus NBRC 12732; format: functional
[37] = tested on: Pseudomonas aeruginosa; assay: Antibacterial activity against Pseudomonas aeruginosa NBRC 3080; format: functional
[38] = tested on: Priestia megaterium; assay: Antibacterial activity against Bacillus megaterium ATCC 19213; format: functional
[39] = tested on: Escherichia coli; assay: Antibacterial activity against Escherichia coli NBRC 12734; format: functional
[40] = tested on: Staphylococcus epidermidis; assay: Antibacterial activity against Staphylococcus epidermidis; format: functional
[41] = tested on: Staphylococcus aureus; assay: Antibacterial activity against Staphylococcus aureus; format: functional
[42] = tested on: Staphylococcus xylosus; assay: Antibacterial activity against Staphylococcus xylosus; format: functional

MIC [1]: 25 µg/mL (≈ 21.9 µM) | MIC [2]: 4.68 µg/mL (≈ 4.1 µM) | MIC [3]: 3.12 µg/mL (≈ 2.74 µM) | MIC [4]: > 50 µg/mL
Structure (SMILES): Cc1nc2c(s1)C(=O)N[C@@H](C(C)C)C(=O)N[C@@H](CCCN)C(=O)N[C@@H](CC(C)C)C(=O)N[C@H](Cc1ccccc1)c1nc(C)sc1C(=O)N[C@@H](C(C)C)C(=O)N[C@@H](CCCN)C(=O)N[C@@H](CC(C)C)C(=O)N[C@@H]2Cc1ccccc1 (cyclo(L[X1]V[Orn]L[X1]V[Orn]))
hemolysis at 0.5 h, 100 ug/ml [5]: 14%

Structure (SMILES): NCCC[C@@H]1NC(=O)[C@H](CCCN)NC(=O)[C@@H]2CCCN2C(=O)[C@@H](Cc2ccccc2)NC(=O)[C@H](CCCN)NC(=O)[C@H](CCCN)NC(=O)[C@H](CCCN)NC(=O)[C@@H]2CCCN2C(=O)[C@@H](Cc2ccccc2)NC(=O)[C@H](CCCN)NC1=O [listing 1 of 2 here]
HC50 [6]: > 200 µg/mL

Structure (SMILES): CC(C)C[C@@H]1NC(=O)[C@H](CCCN)NC(=O)[C@H](C(C)C)NC(=O)[C@H](C)N(C)C(=O)[C@@H](Cc2ccccc2)NC(=O)[C@H](C)N(C)C(=O)[C@@H](CCCN)NC(=O)[C@H](C(C)C)NC(=O)[C@@H]2CCCN2C(=O)[C@@H](Cc2ccccc2)NC1=O
HC50 at 1 h [7]: 69.2 µg/mL | MIC [8]: 7 µg/mL (≈ 6.36 µM) | MIC [9]: 28 µg/mL (≈ 25.4 µM) | MIC [10]: 28 µg/mL (≈ 25.4 µM) | MIC [11]: 3.5 µg/mL (≈ 3.18 µM) | MIC [12]: 7 µg/mL (≈ 6.36 µM) | MIC [13]: 1.8 µg/mL (≈ 1.63 µM)

MIC [16]: 100 µg/mL (≈ 59.9 µM) | IC50 [17]: 93 µM | MIC [18]: 6.2 µg/mL (≈ 3.71 µM) | MIC [19]: 25 µg/mL (≈ 15 µM) | MIC [20]: 1.5 µg/mL (≈ 0.898 µM) | MIC [25]: 6.2 µg/mL (≈ 3.71 µM)
Structure (SMILES): CC(C)C[C@@H]1NC(=O)[C@H](CCCCN)NC(=O)[C@H](C(C)C)NC(=O)[C@@H]2CCCN2C(=O)[C@@H](Cc2ccc(O)cc2)NC(=O)[C@H](CC(C)C)NC(=O)[C@H](CCCCN)NC(=O)[C@H](C(C)C)NC(=O)[C@H](CCCCN)NC(=O)[C@H](CC(C)C)NC(=O)[C@@H]2CCCN2C(=O)[C@@H](Cc2ccc(O)cc2)NC(=O)[C@H](C(C)C)NC(=O)[C@@H](CCCCN)NC1=O (cyclo(KL[dK]V[dY]PLKVKL[dY]PV))
HD100 [14]: 200 µg/mL | selectivity ratio [15]: 2 | selectivity ratio [21]: 32 | selectivity ratio [22]: 8 | selectivity ratio [23]: 32 | selectivity ratio [24]: 133

MIC [27]: 16 µg/mL (≈ 10.1 µM) | MIC [28]: 8 µg/mL (≈ 5.05 µM) | MIC [33]: 8 µg/mL (≈ 5.05 µM) | MIC [34]: 4 µg/mL (≈ 2.52 µM)
Structure (SMILES): CC(C)C[C@@H]1NC(=O)[C@H](CCCN)NC(=O)[C@H](C(C)C)NC(=O)[C@@H]2CCCN2C(=O)[C@@H](Cc2ccccc2)NC(=O)[C@H](CC(C)C)NC(=O)[C@H](CCCN)NC(=O)[C@H](C(C)C)NC(=O)[C@H](CCCN)NC(=O)[C@H](CC(C)C)NC(=O)[C@H]2CC[C@H](OCc3ccccc3)[C@@H](CNC(=O)[C@H](C(C)C)NC(=O)[C@H](CCCN)NC1=O)O2
selectivity ratio [26]: 7.8 | selectivity ratio [29]: 7.8 | Activity [30]: 62.5 µg/mL | selectivity ratio [31]: 15.6 | selectivity ratio [32]: 3.9

MIC [35]: 12.5 µg/mL (≈ 10.7 µM) | MIC [36]: 50 µg/mL (≈ 42.6 µM) | MIC [37]: > 100 µg/mL | MIC [38]: 12.5 µg/mL (≈ 10.7 µM) | MIC [39]: > 100 µg/mL
Structure (SMILES): NCCC[C@@H]1NC(=O)[C@H](CCCN)NC(=O)[C@@H]2CCCN2C(=O)[C@@H](Cc2ccccc2)NC(=O)[C@H](CCCN)NC(=O)[C@H](CCCN)NC(=O)[C@H](CCCN)NC(=O)[C@@H]2CCCN2C(=O)[C@@H](Cc2ccccc2)NC(=O)[C@H](CCCN)NC1=O [listing 2 of 2 here]

MIC [40]: 32 µg/mL (≈ 25.8 µM) | MIC [41]: 16 µg/mL (≈ 12.9 µM) | MIC [42]: 32 µg/mL (≈ 25.8 µM)
Structure (SMILES): CC(C)C[C@@H]1NC(=O)[C@H](CCCN)NC(=O)[C@H](C(C)C)NC(=O)[C@@H]2CCCN2C(=O)[C@@H](Cc2ccccc2)NC(=O)[C@H](CC(C)C)NC(=O)[C@H](CCCN)NC(=O)[C@H](C(C)C)NC(=O)C2=CC3=C4CCCC4=C4C=C(SC4(C)C3(C)S2)C(=O)NNC1=O (some centres not stated)
